Results taken from US20170240535A1, “HDAC1/2 INHIBITORS FOR THE TREATMENT OF NEURODEGENERATIVE AND/OR COGNITIVE DISORDERS” (Regenacy Pharmaceuticals, LLC, priority 2016, published 2017).

Legend:
aged mice = assay: Morris Water Maze, young and aged mice; assay type: in vivo
Procedure: The ability of HDAC1/2 inhibitor Compound 1 to improve cognitive deficits in aged mice was tested by InterVivo Solutions (Toronto, Canada). Young (3 months old) and aged (18 months old) mice were compared in a Morris Water Maze to measure differences in learning and memory.
Mice were first placed in a pool of water and trained to swim to a visible flagged platform (the cued task). The mice received 3 trails per day for 5 days and the time it took for the mice to find the platform was timed. Young mice and aged mice performed equally well at this task, indicating there was no difference in swimming speed between the two cohorts of mice.
Next, mice were trained in a place task, in which the platform is submerged and hidden with flags to indicate the fixed location of the platform. The mice were trained for 4 days with 3 trials per day.

HDAC3 = target: T1, HDAC3 (Homo sapiens, UniProt O15379); assay: HDAC enzyme assay, HDAC3; assay type: biochemical; conditions: enzyme and compound incubated 24 hours at room temperature
T1 construct: purchased BPS Biosciences
T1 sequence (O15379 whole entry): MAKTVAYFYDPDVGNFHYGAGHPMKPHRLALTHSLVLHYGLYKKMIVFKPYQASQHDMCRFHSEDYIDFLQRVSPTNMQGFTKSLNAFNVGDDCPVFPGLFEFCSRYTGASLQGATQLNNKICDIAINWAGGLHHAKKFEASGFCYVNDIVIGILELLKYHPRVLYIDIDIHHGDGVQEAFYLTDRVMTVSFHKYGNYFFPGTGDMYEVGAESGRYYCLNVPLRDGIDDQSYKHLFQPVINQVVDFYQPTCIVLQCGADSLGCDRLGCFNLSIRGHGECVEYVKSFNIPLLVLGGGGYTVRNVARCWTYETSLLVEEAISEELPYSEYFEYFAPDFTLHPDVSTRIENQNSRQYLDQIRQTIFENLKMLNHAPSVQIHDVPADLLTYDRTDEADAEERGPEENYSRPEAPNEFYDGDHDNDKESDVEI
T1 sequence (Q9Y618 395-489 partner limits assumed): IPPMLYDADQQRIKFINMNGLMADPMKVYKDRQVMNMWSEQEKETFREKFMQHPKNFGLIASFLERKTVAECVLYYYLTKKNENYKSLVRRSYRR
Procedure: Compounds for testing were diluted in DMSO to 50 fold the final concentration and a ten point three fold dilution series was made. The compounds were diluted in assay buffer (50 mM HEPES, pH 7.4, 100 mM KCl, 0.001% Tween-20, 0.05% BSA, 20 μM TCEP) to 6 fold their final concentration. The HDAC enzymes (purchased from BPS Biosciences) were diluted to 1.5 fold their final concentration in assay buffer. The tripeptide substrate and trypsin at 0.05 μM final concentration were diluted in assay buffer at 6 fold their final concentration. The final enzyme concentrations used in these assays were 3.3 ng/ml (HDAC1), 0.2 ng/ml (HDAC2) and 0.08 ng/ml (HDAC3). The final substrate concentrations used were 16 μM (HDAC1), 10 μM (HDAC2) and 17 μM (HDAC3). Five μl of compound and 20 μl of enzyme were added to wells of a black, opaque 384 well plate in duplicate. Enzyme and compound were incubated together at room temperature for 24 hours. Five μl of substrate was added to each well, the plate was shaken for 60 seconds and placed into a Victor 2 microtiter plate reader. The development of fluorescence was monitored for 60 min and the linear rate of the reaction was calculated. The IC50 was determined using Graph Pad Prism by a four parameter curve fit.

[1] = Pharmacokinetics in plasma and brain after IV administration; assay type: in vivo; conditions: IV 1 mg/kg, male C57BL/6 mice
Procedure: Male C57Bl/6 mice were fasted overnight. Compounds of the invention were dissolved in dimethyl acetamide at 10 times the final concentration, then Solutol HS 15 (BASF) was added to a final concentration of 10%. Finally 80% saline was added and vortexed to achieve a clear solution. Fifteen animals were injected via the tail vein with 1 mg/kg compound. Blood was collected via retro orbital puncture into K2EDTA tubes at 5 minutes, 15 minutes, 30 minutes, 1 hour, 2 hours, 4 hours, 8 hours and 24 hours after dosing. The blood was centrifuged at 2000 g for 5 minutes at 4° C. to obtain plasma. The plasma was extracted with acetonitrile and the level of compound was analyzed by LC/MS/MS. The level of compound in plasma was calculated from a standard curve in mouse plasma. For brain levels, animals were sacrificed at 5 minutes, 15 minutes, 1 hour, 4 hours and 24 hours. Brains were removed and homogenized in acetonitrile and extracted. The level of compound in brain was calculated from a standard curve in mouse brain tissue. The IV clearance and area under the curve were calculated using WinNonLin software. The ratio of area under the curve for plasma and brain samples was calculated to produce the brain/plasma ratio.

[2] = Pharmacokinetics of Compound 1 in plasma and brain after IP and PO administration (discrete PK); assay type: in vivo; conditions: male C57BL/6 mice; for Kp / Cmax / Tmax / half-life / AUC(0-inf) / AUC(0-t): mouse; for Kp: brain/plasma, read-out: AUCbrain/AUCplasma; for half-life: read-out: Terminal t1/2 (converted)
Procedure: Male C57Bl/6 mice were fasted overnight. Compound 1 was dissolved in 20% HydroxyPropyl-β-Cyclodextran in water. Fifteen animals per experimental arm were dosed by intraperitoneal injection or by oral gavage. Blood was collected via retro orbital puncture into K2EDTA tubes at 5 minutes, 15 minutes, 30 minutes, 1 hour, 2 hours, 4 hours, 8 hours and 24 hours after dosing. The blood was centrifuged at 2000 g for 5 minutes at 4° C. to obtain plasma. The plasma was extracted with acetonitrile and the level of compound was analyzed by LC/MS/MS. The level of compound in plasma was calculated from a standard curve in mouse plasma. For brain levels, animals were sacrificed at 15 minutes, 1 hour, 4 hours, 8 hours and 24 hours. Brains were removed and homogenized in acetonitrile and extracted. The level of compound in brain was calculated from a standard curve in mouse brain tissue. The maximum concentration, half-life and area under the curve were calculated using WinNonLin software. The ratio of area under the curve for plasma and brain samples was calculated to produce the brain/plasma ratio.

[3] = young mice (3 months old), 10 mg/kg/day, 4 weeks

Nc1ccc(-c2ccccc2)cc1NC(=O)c1cc2ccc(N3CCNCC3)cc2cn1 [Compound 1]
learning rate in place task (aged mice; aged mice (18 months old), 10 mg/kg/day, 4 weeks): learn at a rate greater than the young untreated cohort | performance in place test vs corresponding untreated mice (aged mice; young and aged mice, 10 mg/kg/day for 4 weeks): perform better in the place test than the corresponding untreated mice | learning rate in place task (aged mice; [3]): dramatic improvement in learning rate | reduction in escape latency as compared to untreated mice, place task (aged mice; [3]): 25% | IC50 (HDAC3): 84 nM | brain penetrance (from brain/plasma AUC ratios) [1]: highly brain penetrant | AUCINF ([1]; brain): 12187 ng·h/g | AUClast ([1]; brain): 10505 ng·h/g | Kp ([1]; mouse, brain/plasma, read-out: AUCbrain/AUCplasma): 4.05 | Cmax ([1]; mouse, brain): 675 ng/g | Tmax ([1]; mouse, brain): 1 h | half-life ([1]; mouse, brain): 9.12 h | AUC(0-inf) ([1]; mouse, plasma, PK cassette): 3.01 µg·h/mL | AUC(0-t) ([1]; mouse, plasma, PK cassette): 2.68 µg·h/mL | MRT inf ([1]; mouse, plasma, PK cassette): 10.4 h | clearance ([1]; mouse, plasma, PK cassette): 0.333 L/h/kg | half-life ([1]; mouse, plasma, PK cassette): 7.8 h | Vd ([1]; mouse, plasma, PK cassette, read-out: Vss): 3.47 L/kg | brain penetrance (from brain/plasma AUC ratios) ([2]; IP or PO, 3 and 10 mg/kg): highly brain penetrant | AUCINF-brain ([2]; brain, IP 3 mg/kg): 21015 ng·h/g | AUClast-brain ([2]; brain, IP 3 mg/kg): 19737 ng·h/g | AUCINF-brain ([2]; brain, IP 10 mg/kg): 87609 ng·h/g | AUClast-brain ([2]; brain, IP 10 mg/kg): 78978 ng·h/g | AUCINF-brain ([2]; brain, PO 3 mg/kg): 10651 ng·h/g | AUClast-brain ([2]; brain, PO 3 mg/kg): 10019 ng·h/g | AUCINF-brain ([2]; brain, PO 10 mg/kg): 58481 ng·h/g | AUClast-brain ([2]; brain, PO 10 mg/kg): 53716 ng·h/g | Kp ([2]; IP 3 mg/kg): 15.1 | Kp ([2]; IP 10 mg/kg): 15.9 | Kp ([2]; PO 3 mg/kg): 6.81 | Kp ([2]; PO 10 mg/kg): 10.8 | Cmax ([2]; brain, IP 3 mg/kg): 1490 ng/g | Tmax ([2]; brain, IP 3 mg/kg): 4 h | half-life ([2]; brain, IP 3 mg/kg): 5.87 h | Cmax ([2]; brain, IP 10 mg/kg): 5320 ng/g | Tmax ([2]; brain, IP 10 mg/kg): 4 h | half-life ([2]; brain, IP 10 mg/kg): 7.13 h | Cmax ([2]; brain, PO 3 mg/kg): 743 ng/g | Tmax ([2]; brain, PO 3 mg/kg): 4 h | half-life ([2]; brain, PO 3 mg/kg): 5.8 h | Cmax ([2]; brain, PO 10 mg/kg): 3650 ng/g | Tmax ([2]; brain, PO 10 mg/kg): 8 h | half-life ([2]; brain, PO 10 mg/kg): 6.76 h | AUC(0-inf) ([2]; plasma, IP 3 mg/kg): 1.32 µg·h/mL | AUC(0-t) ([2]; plasma, IP 3 mg/kg): 1.31 µg·h/mL | Cmax ([2]; plasma, IP 3 mg/kg): 0.318 µg/mL | Tmax ([2]; plasma, IP 3 mg/kg): 0.5 h | half-life ([2]; plasma, IP 3 mg/kg): 3.88 h | AUC(0-inf) ([2]; plasma, IP 10 mg/kg): 5.04 µg·h/mL | AUC(0-t) ([2]; plasma, IP 10 mg/kg): 4.96 µg·h/mL | Cmax ([2]; plasma, IP 10 mg/kg): 1.02 µg/mL | Tmax ([2]; plasma, IP 10 mg/kg): 0.25 h | half-life ([2]; plasma, IP 10 mg/kg): 4.2 h | AUC(0-inf) ([2]; plasma, PO 3 mg/kg): 1.48 µg·h/mL | AUC(0-t) ([2]; plasma, PO 3 mg/kg): 1.47 µg·h/mL | Cmax ([2]; plasma, PO 3 mg/kg): 0.135 µg/mL | Tmax ([2]; plasma, PO 3 mg/kg): 2 h | half-life ([2]; plasma, PO 3 mg/kg): 3.44 h | AUC(0-inf) ([2]; plasma, PO 10 mg/kg): 5.06 µg·h/mL | AUC(0-t) ([2]; plasma, PO 10 mg/kg): 4.99 µg·h/mL | Cmax ([2]; plasma, PO 10 mg/kg): 0.561 µg/mL | Tmax ([2]; plasma, PO 10 mg/kg): 1 h | half-life ([2]; plasma, PO 10 mg/kg): 4.08 h
